In one assay the target is T1, motilin receptor (Oryctolagus cuniculus, UniProt G1T803).
T1 construct: Duodenal segments were vertically suspended in organ chambers; from tissue; host or cells: rabbit duodenum segments
Nature of the assay: Rabbit duodenum contractility assay (Method B4). As for the experimental part:
Compounds of the present invention have shown significant antagonist activity in this assay.
Rabbit Duodenum Contractility Assay
Duodenal segments were vertically suspended in organ chambers of 10 mL filled with Krebs buffer and connected to an isotonic force transducer, with a preload of 1 g. After a stabilization period, the muscle strips were challenged with 10^−4 M acetylcholine and washed. This was repeated until a stable maximal contraction was obtained (2-3 times), with an interval of at least 20 minutes.
After a stable base line was reached, test compounds were added to the bath. After 15 min incubation, a dose response to motilin was recorded by adding logarithmically increasing concentrations of motilin to the bath (final concentration 10^−9 to 10^−6 M). A blank experiment (no test compound present) was also performed. At the end of the dose response curve, a supramaximal dose of acetylcholine (10^−4 M) was given and this response was used as a reference (100% contraction).
The results of experiments at different concentrations of test compound were combined and analyzed to derive the pA2 value from the Schild plot.

The target of the next assay is human motilin receptor (Homo sapiens, UniProt O43193). Description: Competitive radioligand binding assay (Method B1). On the set-up: purchased PerkinElmer 6110544; host or cells: CHO cells, stably transfected (membranes). The procedure: Competitive Radioligand Binding Assay (Motilin Receptor)
• Membranes were prepared from CHO cells stably transfected with the human motilin receptor and utilized at a quantity of 1.5 μg/assay point.
Final Test Concentrations (N=11) for Compounds:
Compounds were provided frozen on dry ice at a stock concentration of 10 mM diluted in 100% DMSO and stored at −20° C. until the day of testing. On the test day, compounds were allowed to thaw at room temperature and than diluted in assay buffer according to the desired test concentrations. Under these conditions, the maximum final DMSO concentration in the assay was 0.5%.
Plates are sealed with TopSeal-A, vortexed gently and incubated at room temperature for 2 hours. The reaction is arrested by filtering samples through pre-soaked (0.3% polyethyleneimine, 2 h) Multiscreen Harvest plates using a Tomtec® Harvester (Tomtec, Hamden, Conn.)), washed 9 times with 500 μL of cold 50 mM Tris-HCl (pH 7.4), and than plates are air-dried in a fumehood for 30 minutes. A bottom seal is applied to the plates prior to the addition of 25 μL of MicroScint-0™ to each well.
Data are analyzed by GraphPad™ Prism (GraphPad Software, San Diego, Calif.) using a variable slope non-linear regression analysis.
where total and non-specific binding represent the cpm obtained in the absence or presence of 1 μM motilin, respectively.

[1] abbreviates: Radioligand competitive binding assay, Method B1, values reported as ranges, read-out: Ki (binding activity).

What is called Ki is the equilibrium dissociation constant of an inhibitor or competing ligand from its target.

SMILES strings stand for the structures. Like-named read-outs stand apart in the source and are kept apart here.

Sequence of human motilin receptor (O43193 whole entry): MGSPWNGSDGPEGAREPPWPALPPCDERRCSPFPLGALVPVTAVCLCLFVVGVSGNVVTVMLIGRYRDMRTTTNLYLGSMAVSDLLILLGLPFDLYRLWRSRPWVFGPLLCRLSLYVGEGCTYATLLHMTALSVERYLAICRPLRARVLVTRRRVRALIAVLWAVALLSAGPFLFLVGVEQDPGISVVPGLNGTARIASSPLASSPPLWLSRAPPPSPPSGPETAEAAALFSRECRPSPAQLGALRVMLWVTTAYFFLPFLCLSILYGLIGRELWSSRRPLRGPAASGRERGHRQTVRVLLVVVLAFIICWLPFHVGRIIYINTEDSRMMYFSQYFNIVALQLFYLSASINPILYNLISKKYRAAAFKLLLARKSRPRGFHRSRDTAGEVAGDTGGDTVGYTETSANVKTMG
T1 sequence (G1T803 1-400): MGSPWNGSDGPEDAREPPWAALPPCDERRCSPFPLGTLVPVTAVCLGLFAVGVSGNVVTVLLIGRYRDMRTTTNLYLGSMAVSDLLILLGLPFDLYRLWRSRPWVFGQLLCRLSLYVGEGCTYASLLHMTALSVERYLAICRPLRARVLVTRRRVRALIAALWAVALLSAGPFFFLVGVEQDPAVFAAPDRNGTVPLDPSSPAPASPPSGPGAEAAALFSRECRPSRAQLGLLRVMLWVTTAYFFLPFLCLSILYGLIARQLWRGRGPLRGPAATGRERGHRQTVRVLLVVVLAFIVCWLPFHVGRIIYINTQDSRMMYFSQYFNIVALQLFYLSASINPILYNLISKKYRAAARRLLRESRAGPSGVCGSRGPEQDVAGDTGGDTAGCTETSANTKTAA

Regarding `CCC[C@@H]1NC(=O)[C@@H](C(C)C)NC(=O)[C@@H](Cc2cccc(OC)c2)NCCOc2ccccc2CCCNC1=O` [Compound 165], the Kb at motilin receptor was 67.6 nM. For the same molecule, the inhibitory constant (Ki) on human motilin receptor (setting [1]) lay in the range of 1 to 100 nM.

As for `CC(C)C1NC(=O)C(Cc2cccc3ccccc23)NCCOc2ccccc2CCCNC(=O)C(CO)NC1=O` (centres unmarked) [Compound 179], on human motilin receptor (setting [1]), the inhibition constant (Ki) lay within 100 to 1000 nM.

Consider `COc1ccc(CC2NC(=O)C(C(C)C)NC(=O)C(Cc3ccc(O)cc3)NCCOc3ccccc3C=CCNC2=O)cc1` (centres unmarked) [Compound 60], for which the inhibition constant (Ki) on human motilin receptor (setting [1]) lay in the range of 1000 to 10000 nM.

As for `CSCCC1NC(=O)C(C(C)C)NC(=O)C(Cc2ccc(O)cc2)NCCOc2ccccc2C=CCNC1=O` (centres unmarked) [Compound 6], the Ki at human motilin receptor (setting [1]) lay in the range of 100 to 1000 nM.

`CCC(C)C1NC(=O)C(C(C)C)NC(=O)C(Cc2ccc(O)cc2)NCCOc2ccccc2C=CCNC1=O` (centres unmarked) [Compound 80]: the inhibitory constant (Ki) on human motilin receptor (setting [1]) lay in the range of 100 to 1000 nM.

Take `CCC[C@@H]1NC(=O)[C@@H](C(C)C)NC(=O)[C@@H](Cc2ccc(C)cc2)NCCOc2ccccc2CCCNC1=O` [Compound 164]: the inhibition constant (Ki) at human motilin receptor (setting [1]) fell in the range of 100 to 1000 nM.

As to `CCCC1NC(=O)C(C(C)C)NC(=O)C(Cc2ccc(O)cc2)NCCOc2ccccc2C=CCNC1=O` (centres unmarked) [Compound 85], on human motilin receptor (setting [1]), the Ki lay in the range of 100 to 1000 nM.

With `CC(C)C1NC(=O)C(Cc2ccc(F)cc2)NCCOc2ccccc2CCCNC(=O)C(CN)NC1=O` (centres unmarked) [Compound 157], at human motilin receptor (setting [1]), the Ki was 100 to 1000 nM.

`CC(C)CC1NC(=O)C(C(C)C)NC(=O)C(Cc2ccccc2)NCCOc2ccccc2C=CCNC1=O` (centres unmarked) [Compound 20]: the Ki on human motilin receptor (setting [1]) is 100 to 1000 nM.

With `COc1ccc(CC2NCCOc3ccccc3CCCNC(=O)C(CN)NC(=O)C(C(C)C)NC2=O)cc1` (centres unmarked) [Compound 152], the inhibition constant (Ki) on human motilin receptor (setting [1]) is 100 to 1000 nM.

Regarding `CC(C)C1NC(=O)C(Cc2cccc3ccccc23)NCCOc2ccccc2CCCNC(=O)C(CN)NC1=O` (centres unmarked) [Compound 153], at human motilin receptor (setting [1]), the Ki is 100 to 1000 nM.

Turning to `CCCC1NC(=O)C(Cc2ccccc2)NC(=O)C(Cc2ccc(O)cc2)NCCOc2ccccc2C=CCNC1=O` (centres unmarked) [Compound 41], the Ki on human motilin receptor (setting [1]) fell in the range of 1000 to 10000 nM.

For `CCCCC1NC(=O)C(Cc2ccc(O)cc2)NCCOc2ccccc2C=CCNC(=O)C(CCC)NC1=O` (centres unmarked) [Compound 77], the Ki at human motilin receptor (setting [1]) is 1000 to 10000 nM.

As to `CC(C)[C@H]1NC(=O)[C@@H](Cc2ccc(O)cc2)NCCOc2ccccc2CCCNC(=O)[C@H](CC2CC2)NC1=O` [Compound 26], the Ki at human motilin receptor (setting [1]) was 1 to 100 nM.

As to `CC(C)CC1NC(=O)C(C(C)C)NC(=O)C(Cc2ccccc2)NCCOc2ccccc2CCCNC1=O` (centres unmarked) [Compound 13], the Ki at human motilin receptor (setting [1]) lay within 100 to 1000 nM.

For `CCC[C@@H]1NC(=O)[C@@H](C(C)C)NC(=O)[C@@H](Cc2ccc(Cl)cc2)NCCOc2ccccc2CCCNC1=O` [Compound 16], the Ki on human motilin receptor (setting [1]) lay in the range of 1 to 100 nM.

For `CC(C)C1NC(=O)C(Cc2ccc(Cl)cc2)NCCOc2cccnc2CCCNC(=O)C(CC2CC2)NC1=O` (centres unmarked) [Compound 150], at human motilin receptor (setting [1]), the inhibitory constant (Ki) lay in the range of 100 to 1000 nM.

As to `CCC[C@@H]1NC(=O)[C@@H](C(C)C)NC(=O)[C@@H](Cc2cccc(C)c2)NCCOc2ccccc2CCCNC1=O` [Compound 163], the Ki on human motilin receptor (setting [1]) was 1 to 100 nM.

Take `CCCC1NC(=O)C(C(C)C)NC(=O)C(Cc2ccc(O)cc2)NCCOc2ccccc2C=CCNC1=O` (centres unmarked) [Compound 1]: the inhibition constant (Ki) at human motilin receptor ([125I]-motilin competition, CHO cell membranes with human motilin receptor, read-out: Binding activity (Ki)) lay within 100 to 1000 nM.

Regarding `CC(C)C[C@@H]1NC(=O)[C@@H](C(C)C)NC(=O)[C@@H](Cc2cccc(Cl)c2)NCCOc2ccccc2CCCNC1=O` [Compound 131], at human motilin receptor (setting [1]), the Ki is 1 to 100 nM.

`CCCC1NC(=O)C(C(C)C)NC(=O)C(Cc2cccnc2)NCCOc2ccccc2CCCNC1=O` (centres unmarked) [Compound 28]: the Ki on human motilin receptor (setting [1]) is 100 to 1000 nM.

For the molecule `CC(C)[C@H]1NC(=O)[C@@H](Cc2ccc(Cl)cc2)NCCOc2ccccc2CCCNC(=O)[C@H](CN)NC1=O` [Compound 156], the inhibition constant (Ki) at human motilin receptor (setting [1]) fell in the range of 1 to 100 nM.

In the case of `CCC[C@@H]1NC(=O)[C@@H](C(C)C)NC(=O)[C@@H](Cc2ccc(OC)cc2)NCCOc2ccccc2CCCNC1=O` [Compound 22], on human motilin receptor (setting [1]), the inhibition constant Ki was 1 to 100 nM.

Regarding `CC(C)C[C@@H]1NC(=O)[C@@H](C(C)C)NC(=O)[C@@H](Cc2ccc3ccccc3c2)NCCOc2ccccc2CCCNC1=O` [Compound 14], the inhibitory constant (Ki) on human motilin receptor (setting [1]) is 100 to 1000 nM.

Regarding `COc1ccc(CC2NCCOc3cccnc3CCCNC(=O)C(CC(C)C)NC(=O)C(C(C)C)NC2=O)cc1` (centres unmarked) [Compound 135], the inhibition constant Ki at human motilin receptor (setting [1]) lay within 100 to 1000 nM.

As to `CC(C)C1NC(=O)C(Cc2ccc(O)cc2)NCCOc2ccccc2C=CCNC(=O)C(c2ccccc2)NC1=O` (centres unmarked) [Compound 52], the Ki on human motilin receptor (setting [1]) was in the range of 100 to 1000 nM.

As for `CC(C)C1NC(=O)C(Cc2ccc(O)cc2)NCCOc2ccccc2C=CCNC(=O)C(CCCN)NC1=O` (centres unmarked) [Compound 56], the Ki at human motilin receptor (setting [1]) was in the range of 100 to 1000 nM.

In the case of `CC(C)C1NC(=O)C(Cc2ccc(O)cc2)NCCOc2ccccc2C=CCNC(=O)C(CCCCN)NC1=O` (centres unmarked) [Compound 55], the Ki on human motilin receptor (setting [1]) fell in the range of 100 to 1000 nM.

For `CCC[C@@H]1NC(=O)[C@@H](C(C)C)NC(=O)[C@@H](Cc2ccc(OC)c(OC)c2)NCCOc2ccccc2CCCNC1=O` [Compound 172], on human motilin receptor (setting [1]), the inhibition constant Ki lay in the range of 1 to 100 nM.

Regarding `COc1ccc(C[C@H]2NCCOc3ccccc3CCCNC(=O)[C@H](CC3CC3)NC(=O)[C@@H](C(C)C)NC2=O)cc1` [Compound 141], on human motilin receptor (setting [1]), the inhibition constant Ki was 1 to 100 nM.

Turning to `CC(C)CC1NC(=O)C(C(C)C)NC(=O)C(Cc2ccc(Cl)cc2)NCCOc2cccnc2CCCNC1=O` (centres unmarked) [Compound 139], on human motilin receptor (setting [1]), the Ki fell in the range of 100 to 1000 nM.

With `CCCCC1NC(=O)C(C(C)C)NC(=O)C(Cc2ccc(O)cc2)NCCOc2ccccc2C=CCNC1=O` (centres unmarked) [Compound 7], at human motilin receptor (setting [1]), the Ki was in the range of 100 to 1000 nM.

Regarding `CCC[C@@H]1NC(=O)[C@@H](C(C)C)NC(=O)[C@@H](Cc2cccc(Cl)c2)NCCOc2ccccc2CCCNC1=O` [Compound 15], the Ki on human motilin receptor (setting [1]) was 1 to 100 nM.

`CCCC1NC(=O)C(C(C)C)NC(=O)C(C(c2ccccc2)c2ccccc2)NCCOc2ccccc2CCCNC1=O` (centres unmarked) [Compound 90]: at human motilin receptor (setting [1]), the inhibition constant (Ki) was 1000 to 10000 nM.

For the origin of these results see US20090240027A1, “INTERMEDIATES FOR MACROCYCLIC COMPOUNDS” (Tranzyme Pharma Inc., priority 2003, published 2009).
